Where two headings read alike, the source gives them in different places.
Legend:
[1] = Oral bioavailability and pharmacokinetics in beagle dogs; assay type: in vivo; details: for AUC(0-inf): read-out: AUC0–inf (mean)
Procedure: After a 7-day washout period, the same two dogs were administered NVR 3-778 by a single oral gavage of the same formulation at 1.5 mg/kg. Blood samples were collected at 0 (predose), 2 min (for the i.v. group only), 5 min, 15 min, and 0.5, 1, 3, 6, 9, and 24 h postdose. The concentration of NVR 3-778 in plasma samples was determined using LC-MS/MS methods.

[2] = Hepatocyte stability, dog hepatocytes; assay type: in vitro ADME; details: 120 min incubation
Procedure: Following in vitro incubation for 120 min with human, mouse, or dog hepatocytes, >85% of the NVR 3-778 remained intact. […] The fewest number of metabolites was found following incubation with human hepatocytes, where 92% of the NVR 3-778 remained after a 120-min incubation.

HBV = assay: Effect of human serum on antiviral activity in HepG2.2.15 cells; assay type: cell-based, hepatitis B virus (GT D); details: for EC50 / EC90: Hepatitis B virus, HepG2.2.15, 144 h, HepG2.2.15 cells, 6 days
Procedure: To determine the effect of human protein binding on NVR 3-778 antiviral activity, HepG2.2.15 cells were incubated with increasing concentrations of NVR 3-778 in the presence of 0% to 40% human serum.
In combination studies, cells were treated with compounds either alone or in combination after combining the compounds in a checkerboard format. In studies examining the effect of human serum, serially diluted NVR 3-778 was added into cell culture medium containing 0% to 40% human serum (BioreclamationIVT). Cells were incubated with the compounds for 3 days, after which the medium was removed, fresh medium containing the compounds was added to the cells, and the cells were incubated for another 3 days prior to harvesting of the supernatants or cells for antiviral assays. To quantify intracellular encapsidated rcDNA or encapsidated pgRNA, cells were first solubilized using lysis buffer containing 1% NP-40 and 10 mM CaCl2. The cytoplasmic fraction was then treated with S7 nuclease (6 units) to remove nonencapsidated nucleic acids, after which the S7 nuclease was inactivated by the addition of EDTA (0.5 M). […] The levels of HBV DNA were determined by a bDNA assay as described above (Affymetrix). Supernatants or cell lysates containing HBV RNA were treated with proteinase K (2.5 µg) at 50°C for 40 min, transferred to a capture plate containing HBV RNA probe sets, and hybridized overnight at 55°C. Captured HBV RNA was measured by the addition of a chemiluminescent substrate using a QuantiGene assay (Affymetrix). […] At day 6, the CellTiter-Glo reagent was added to the cells and viability was determined according to the manufacturer’s protocol (Promega). Luminescence signals were measured at 0.2 s using a Victor X4 multimode plate reader (PerkinElmer). […]
Figure S3. Effect of human serum on NVR 3-778 antiviral activities. HepG2.2.15 cells were incubated with increasing concentrations of NVR 3-778 for 6 days in the presence of 0% (●), 10% […]
HBV DNA concentrations were determined from supernatant and compared to untreated cells containing the corresponding concentration of human serum. Data points represent mean values from at least three independent antiviral studies, and standard deviations are shown as error bars.

plasma proteins = assay: Plasma protein binding by equilibrium dialysis, human; assay type: in vitro ADME; details: 2 µM
Excerpt: The binding of NVR 3-778 to the plasma proteins of mouse, rat, dog, monkey, and human was investigated by equilibrium dialysis.

[3] = dog, plasma, iv, single i.v. 0.5 mg/kg, two male beagle dogs
[4] = dog, plasma, single oral gavage 1.5 mg/kg, two male beagle dogs
[5] = 2% human serum as printed in the table (text: 20%) versus without human serum
[6] = 10% human serum versus without human serum
[7] = 0% human serum, supernatant HBV DNA
[8] = 2% human serum as printed in the table (text: 20%)
[9] = 10% human serum, supernatant HBV DNA
[10] = 40% human serum, supernatant HBV DNA

## O=C(Nc1cc(F)c(F)c(F)c1)c1ccc(F)c(S(=O)(=O)N2CCC(O)CC2)c1 [NVR 3-778]
[1]; [3]
  clearance: 6.1 mL/min/kg
  AUC(0-inf): 1380 ng·h/mL
[1]; dog, plasma, iv, single i.v. 0.5 mg/kg, two male beagle dogs, read-out: Mean terminal half-life (converted)
  half-life: 246 min
[1]; dog, plasma, iv, single i.v. 0.5 mg/kg, two male beagle dogs, read-out: Volume of distribution at steady state (Vss) (mean)
  Vd: 1.7 L/kg
[1]; [4]
  Cmax: 560 ng/mL
  AUC(0-inf): 3500 ng·h/mL
[1]; dogs, oral gavage
  Circulating species in plasma: predominant circulating molecule
[1]; male, dog, plasma, oral 1.5 mg/kg versus i.v. 0.5 mg/kg, beagle dogs
  bioavailability: 84.6%
[2]
  NVR 3-778 remaining intact: > 85%
HBV; 0% human serum (reference)
  EC50 fold shift: 1
  EC90 fold shift: 1.0
HBV; [5]
  EC50 fold shift: 9.3
  EC90 fold shift: 10.3
HBV; [6]
  EC50 fold shift: 4.5
  EC90 fold shift: 4.5
HBV; 40% human serum versus without human serum
  EC90 fold shift: 15.2
HBV; [7]
  EC50: 400 ± 100 nM
  EC90: 1.5 ± 0.41 µM
HBV; [8]
  EC50: 3700 ± 1000 nM
  EC90: 15.9 ± 6.3 µM
HBV; [9]
  EC50: 1800 ± 510 nM
  EC90: 6.9 ± 0.9 µM
HBV; [10]
  EC50: 6300 ± 2000 nM
  EC90: 23.5 ± 11.6 µM
Plasma proteins
  Mean percent binding to plasma proteins: approximately 98%

Reference: paper PMC6325219, “Preclinical Characterization of NVR 3-778, a First-in-Class Capsid Assembly Modulator against Hepatitis B Virus” (Antimicrobial Agents and Chemotherapy, 2018)
